Values belong to the compound of their own block, whether it stands above or below them.
System: 898857-211-R-J1-PDC complex spheroids, growth % test/control
Test: Anticancer human tumor 898857-211-R-J1-PDC patient-derived melanoma cell line growth inhibition [RAS]
Conditions: for viability, T/C: stronger effect = lower value
Method in brief: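 Tumour cells grown as complex spheroids with HUVEC endothelial cells and mesenchymal stem cells, treated with RAS pathway inhibitor combinations. Each agent spans half-log steps from near clinical Cmax, or 10 microM where Cmax is unknown.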
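Further: spheroids exposed to compound for seven days before readout.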
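Wherever viability, T/C is given: 100% = DMSO vehicle control wells.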

IC50 (curve of first compound, second compound 0.00316 µM): 5.36 nM
IC50 (curve of first compound, second compound 0.01 µM): 5.18 nM
IC50 (curve of first compound, second compound 0.0316 µM): 4.69 nM
IC50 (curve of first compound, second compound 0.1 µM): 5.81 nM
IC50 (curve of first compound, second compound 0.316 µM): 5.77 nM
IC50 (curve of first compound, second compound 1 µM): 4.52 nM
SMILES: CC1(C)CCC(Nc2ncc(C(F)(F)F)c(-c3c[nH]c4c(P(C)(C)=O)c(C#N)ccc34)n2)CN1 (centres undefined) + C=CC(=O)N1CCN(c2nc(OCC3CCCN3C)nc3c(F)c(-c4nc(N)cc(C)c4C(F)(F)F)c(Cl)cc23)C(C)C1
viability, T/C (second compound 0.00316 µM, first compound 0.000949 µM): 96.9%
viability, T/C (second compound 0.00316 µM, first compound 0.003 µM): 67.8%
viability, T/C (second compound 0.00316 µM, first compound 0.00949 µM): 32.1%
viability, T/C (second compound 0.00316 µM, first compound 0.03 µM): 20.6%
viability, T/C (second compound 0.00316 µM, first compound 0.0949 µM): 16.4%
viability, T/C (second compound 0.00316 µM, first compound 0.3 µM): 14.5%
viability, T/C (second compound 0.01 µM, first compound 0.000949 µM): 96.9%
viability, T/C (second compound 0.01 µM, first compound 0.003 µM): 66.3%
viability, T/C (second compound 0.01 µM, first compound 0.00949 µM): 32.1%
viability, T/C (second compound 0.01 µM, first compound 0.03 µM): 19.5%
viability, T/C (second compound 0.01 µM, first compound 0.0949 µM): 18.5%
viability, T/C (second compound 0.01 µM, first compound 0.3 µM): 17.8%
viability, T/C (second compound 0.0316 µM, first compound 0.000949 µM): 91.3%
viability, T/C (second compound 0.0316 µM, first compound 0.003 µM): 61.3%
viability, T/C (second compound 0.0316 µM, first compound 0.00949 µM): 32%
viability, T/C (second compound 0.0316 µM, first compound 0.03 µM): 22%
viability, T/C (second compound 0.0316 µM, first compound 0.0949 µM): 17.4%
viability, T/C (second compound 0.0316 µM, first compound 0.3 µM): 17.1%
viability, T/C (second compound 0.1 µM, first compound 0.000949 µM): 91.8%
viability, T/C (second compound 0.1 µM, first compound 0.003 µM): 74.7%
viability, T/C (second compound 0.1 µM, first compound 0.00949 µM): 32%
viability, T/C (second compound 0.1 µM, first compound 0.03 µM): 14.9%
viability, T/C (second compound 0.1 µM, first compound 0.0949 µM): 17.6%
viability, T/C (second compound 0.1 µM, first compound 0.3 µM): 15.8%
viability, T/C (second compound 0.316 µM, first compound 0.000949 µM): 101%
viability, T/C (second compound 0.316 µM, first compound 0.003 µM): 70.5%
viability, T/C (second compound 0.316 µM, first compound 0.00949 µM): 33.8%
viability, T/C (second compound 0.316 µM, first compound 0.03 µM): 21.8%
viability, T/C (second compound 0.316 µM, first compound 0.0949 µM): 17.8%
viability, T/C (second compound 0.316 µM, first compound 0.3 µM): 15%
viability, T/C (second compound 1 µM, first compound 0.000949 µM): 98.9%
viability, T/C (second compound 1 µM, first compound 0.003 µM): 61.3%
viability, T/C (second compound 1 µM, first compound 0.00949 µM): 29.3%
viability, T/C (second compound 1 µM, first compound 0.03 µM): 18.3%
viability, T/C (second compound 1 µM, first compound 0.0949 µM): 15%
viability, T/C (second compound 1 µM, first compound 0.3 µM): 12.2%

IC50 (compound alone, run of 08/26/2024): > 300 nM
SMILES: CCn1c(-c2cc(N3CCN(C)CC3)cnc2C(C)OC)c2c3cc(ccc31)-c1csc(n1)CC(NC(=O)C1CC1C)C(=O)N1CCCC(N1)C(=O)OCC(C)(C)C2 (centres undefined)
viability, T/C (compound 0.000949 µM): 111% [middle of 8 runs]
viability, T/C (compound 0.003 µM): 109% [middle of 8 runs]
viability, T/C (compound 0.00949 µM): 102% [middle of 8 runs]
viability, T/C (compound 0.03 µM): 105% [middle of 8 runs]
viability, T/C (compound 0.0949 µM): 96.2% [middle of 8 runs]
viability, T/C (compound 0.3 µM): 100% [middle of 8 runs]

From PubChem BioAssay AID2060882 (Molecular Pharmacology Branch, DTP, NCI, 2025)
